This assay relates to S. cerevisiae GRE-beta-galactosidase reporter, luminescence, 75 min. Kind of assay: steroid-induced GRE reporter decrease in yeast – S. cerevisiae, luminescence, Hsp90 inhibitor project, dose response (AID 2400).

A word on the EC50: it is the midpoint of the concentration-response curve.

Where “and” joins values, the source holds several entries; their conditions need not be identical. Equal entries are not always repeated. Calls of active or inactive are those of the source.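 Rule for the calls: active = fitted EC50 at or below ten times the top tested concentration; inconclusive = flat fit with activity between 30% and 70%, or an unusable fit; inactive = EC50 beyond ten times the top tested concentration.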 Where only a bound is given, the exact number is not on record here.

As for `NC(=NCCCCCCN=C(N)/N=C(\N)Nc1ccc(Cl)cc1)/N=C(\N)Nc1ccc(Cl)cc1`, the EC50 was > 16 µM (inactive) and > 15 µM (inactive).

Take `CC1CCC(C(C)C)C(OC(=O)Cn2c(-c3ccc(Br)cc3)[n+](C)c3ccccc32)C1` (configuration not stated): the EC50 is > 16 µM (inactive).

The values are drawn from PubChem BioAssay AID2400 (Broad Institute, 2010).
